Where two headings read alike, the source gives them in different places.
Legend:
Recombinant JAK1 = biological target: T1, Recombinant JAK1 (Homo sapiens, UniProt P23458); assay: JAK biochemical assay (LANCE Ultra TR-FRET), JAK1; settings: recombinant JAK1, TR-FRET; read-out: Biochemical Assay (μM) JAK1
T1 construct: purchased Carna Biosciences
Method in brief: (§1)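 Kinase reactions ran in buffer of 50 mM HEPES pH 7.5 with 1 mM EGTA, 10 mM MgCl2, 2 mM DTT and 0.01% Tween-20, using recombinant enzyme. Phosphorylated ULight substrate was detected by TR-FRET, and compound effect expressed as % inhibition against vehicle.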

Recombinant JAK2 = biological target: T2, Recombinant JAK2 (Homo sapiens, UniProt O60674); assay: JAK biochemical assay (LANCE Ultra TR-FRET), JAK2; settings: recombinant JAK2, TR-FRET; read-out: Biochemical Assay (μM) JAK2
T2 construct: purchased Carna Biosciences
T2 sequence (O60674 whole entry): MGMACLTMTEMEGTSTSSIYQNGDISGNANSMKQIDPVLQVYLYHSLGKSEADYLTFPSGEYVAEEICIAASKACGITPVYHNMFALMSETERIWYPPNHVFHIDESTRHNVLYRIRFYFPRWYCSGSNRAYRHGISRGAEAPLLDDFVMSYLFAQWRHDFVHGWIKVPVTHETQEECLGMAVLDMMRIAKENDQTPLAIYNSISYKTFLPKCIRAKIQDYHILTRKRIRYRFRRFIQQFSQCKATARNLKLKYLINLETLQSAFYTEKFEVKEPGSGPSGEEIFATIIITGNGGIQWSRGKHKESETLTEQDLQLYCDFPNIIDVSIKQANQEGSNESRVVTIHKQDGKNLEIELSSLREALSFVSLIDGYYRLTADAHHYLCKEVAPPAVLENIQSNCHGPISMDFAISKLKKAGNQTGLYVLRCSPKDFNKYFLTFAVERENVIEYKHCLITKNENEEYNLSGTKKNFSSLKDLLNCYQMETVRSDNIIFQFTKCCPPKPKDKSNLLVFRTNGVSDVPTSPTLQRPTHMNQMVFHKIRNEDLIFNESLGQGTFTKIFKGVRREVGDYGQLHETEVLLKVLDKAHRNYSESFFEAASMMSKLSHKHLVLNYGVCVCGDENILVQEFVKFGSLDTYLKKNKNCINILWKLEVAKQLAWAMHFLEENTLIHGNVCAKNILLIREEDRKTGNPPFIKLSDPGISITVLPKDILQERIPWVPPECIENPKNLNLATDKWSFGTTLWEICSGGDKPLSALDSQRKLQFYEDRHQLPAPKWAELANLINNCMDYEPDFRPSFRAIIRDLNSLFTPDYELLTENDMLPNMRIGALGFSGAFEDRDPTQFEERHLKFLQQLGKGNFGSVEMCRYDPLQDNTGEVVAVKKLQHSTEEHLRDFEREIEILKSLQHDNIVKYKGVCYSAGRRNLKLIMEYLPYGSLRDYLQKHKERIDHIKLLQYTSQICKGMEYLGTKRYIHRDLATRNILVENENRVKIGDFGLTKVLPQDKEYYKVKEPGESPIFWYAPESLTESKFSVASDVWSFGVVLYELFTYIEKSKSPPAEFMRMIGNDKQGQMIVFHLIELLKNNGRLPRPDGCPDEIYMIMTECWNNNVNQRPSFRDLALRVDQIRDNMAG
Method in brief: as §1

Recombinant JAK3 = biological target: T3, Recombinant JAK3 (Homo sapiens, UniProt P52333); assay: JAK biochemical assay (LANCE Ultra TR-FRET), JAK3; settings: recombinant JAK3, TR-FRET; read-out: Biochemical Assay (μM) JAK3
T3 construct: purchased Carna Biosciences
T3 sequence (P52333 1-1124): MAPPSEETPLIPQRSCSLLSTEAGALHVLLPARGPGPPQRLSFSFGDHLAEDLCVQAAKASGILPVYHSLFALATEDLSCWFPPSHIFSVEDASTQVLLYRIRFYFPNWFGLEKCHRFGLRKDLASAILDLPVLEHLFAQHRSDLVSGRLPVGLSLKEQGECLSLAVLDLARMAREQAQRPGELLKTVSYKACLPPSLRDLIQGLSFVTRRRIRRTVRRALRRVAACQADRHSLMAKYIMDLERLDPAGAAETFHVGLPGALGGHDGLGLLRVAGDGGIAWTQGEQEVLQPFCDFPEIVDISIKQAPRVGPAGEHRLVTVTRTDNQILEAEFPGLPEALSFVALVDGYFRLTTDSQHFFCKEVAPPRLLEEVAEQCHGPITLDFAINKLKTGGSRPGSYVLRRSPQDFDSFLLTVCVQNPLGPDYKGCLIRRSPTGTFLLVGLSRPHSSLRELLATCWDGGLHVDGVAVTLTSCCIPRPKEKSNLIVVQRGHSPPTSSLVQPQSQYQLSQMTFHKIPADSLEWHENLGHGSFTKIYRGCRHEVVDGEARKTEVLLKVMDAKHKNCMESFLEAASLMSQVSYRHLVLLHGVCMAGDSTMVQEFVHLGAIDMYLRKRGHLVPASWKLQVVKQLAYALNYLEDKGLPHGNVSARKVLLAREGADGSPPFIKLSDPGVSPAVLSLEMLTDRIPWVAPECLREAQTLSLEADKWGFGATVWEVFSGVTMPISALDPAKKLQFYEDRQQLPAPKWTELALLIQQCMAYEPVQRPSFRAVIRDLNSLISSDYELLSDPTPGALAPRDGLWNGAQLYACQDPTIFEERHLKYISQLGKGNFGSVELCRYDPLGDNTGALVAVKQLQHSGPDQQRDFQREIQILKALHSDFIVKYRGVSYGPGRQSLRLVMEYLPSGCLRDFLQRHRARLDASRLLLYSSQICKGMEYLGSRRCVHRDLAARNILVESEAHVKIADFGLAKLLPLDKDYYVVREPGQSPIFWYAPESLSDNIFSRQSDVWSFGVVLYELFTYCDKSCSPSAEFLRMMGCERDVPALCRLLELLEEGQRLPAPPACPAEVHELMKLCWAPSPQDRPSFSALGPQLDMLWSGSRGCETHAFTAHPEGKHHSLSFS
Method in brief: as §1

Recombinant TYK2 = biological target: T4, Recombinant TYK2 (Homo sapiens, UniProt P29597); assay: JAK biochemical assay (LANCE Ultra TR-FRET), TYK2; settings: recombinant TYK2, TR-FRET; read-out: Biochemical Assay (μM) TYK2
T4 construct: purchased Carna Biosciences
T4 sequence (P29597 whole entry): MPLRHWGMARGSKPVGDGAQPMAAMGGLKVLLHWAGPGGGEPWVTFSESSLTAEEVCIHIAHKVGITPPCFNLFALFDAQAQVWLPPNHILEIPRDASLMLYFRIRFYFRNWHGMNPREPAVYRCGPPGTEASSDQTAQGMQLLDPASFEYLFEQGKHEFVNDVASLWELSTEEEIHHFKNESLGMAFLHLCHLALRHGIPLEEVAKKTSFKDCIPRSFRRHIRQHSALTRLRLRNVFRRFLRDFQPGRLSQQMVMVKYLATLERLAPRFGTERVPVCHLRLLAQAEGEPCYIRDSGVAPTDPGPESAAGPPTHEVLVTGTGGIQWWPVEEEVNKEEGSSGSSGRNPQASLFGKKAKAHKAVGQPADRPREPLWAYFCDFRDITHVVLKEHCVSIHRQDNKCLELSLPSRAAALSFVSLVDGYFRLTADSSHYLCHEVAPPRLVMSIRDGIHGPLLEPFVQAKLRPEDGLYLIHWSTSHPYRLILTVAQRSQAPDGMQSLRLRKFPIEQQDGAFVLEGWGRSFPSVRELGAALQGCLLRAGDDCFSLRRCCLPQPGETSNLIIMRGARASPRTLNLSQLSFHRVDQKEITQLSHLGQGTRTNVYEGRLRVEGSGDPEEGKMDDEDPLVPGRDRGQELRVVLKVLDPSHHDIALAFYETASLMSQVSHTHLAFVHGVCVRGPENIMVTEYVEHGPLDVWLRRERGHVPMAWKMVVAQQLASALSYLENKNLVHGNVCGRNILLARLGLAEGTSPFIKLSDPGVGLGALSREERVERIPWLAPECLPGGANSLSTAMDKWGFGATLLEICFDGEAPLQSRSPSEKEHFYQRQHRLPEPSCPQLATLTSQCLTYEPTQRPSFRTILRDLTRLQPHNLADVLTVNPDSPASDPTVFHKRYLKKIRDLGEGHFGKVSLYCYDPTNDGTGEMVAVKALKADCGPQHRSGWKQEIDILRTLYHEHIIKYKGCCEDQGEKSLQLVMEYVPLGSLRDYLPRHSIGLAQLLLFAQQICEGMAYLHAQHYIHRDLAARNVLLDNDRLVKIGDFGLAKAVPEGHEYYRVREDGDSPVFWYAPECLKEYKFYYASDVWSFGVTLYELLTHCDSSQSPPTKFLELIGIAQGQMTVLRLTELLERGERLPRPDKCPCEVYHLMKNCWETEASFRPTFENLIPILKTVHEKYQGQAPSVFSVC
Method in brief: as §1

[1] = test system: STAT3 phosphorylation by IL-6 in TF-1 cells; assay: JAK cellular assay: STAT3 phosphorylation by IL-6 in TF-1 cells (HTRF); format: cell-based; settings: IL-6 30 ng/ml, pSTAT3 HTRF, read-out: Cell Based Assay (μM) TF-1/IL-6/pSTAT3
Method in brief: (§2)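 TF-1 cells starved overnight in low-serum OptiMEM, then 120,000/well in RPMI, preincubated with compound 30 min at 37 °C (0.2% DMSO final). Stimulation 20 min with IL-6 30 ng/ml (pSTAT3) or GMCSF 5 ng/ml (pSTAT5); lysate phospho-STAT by HTRF, unstimulated background subtracted.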

[2] = test system: STAT5 phosphorylation by GMCSF in TF-1 cells; assay: JAK cellular assay: STAT5 phosphorylation by GMCSF in TF-1 cells (HTRF); format: cell-based; settings: TF-1 cells, GMCSF 5 ng/ml, pSTAT5 HTRF, read-out: Cell Based Assay (μM) TF-1/GMCSF/pSTAT5
Method in brief: as §2

[3] = test system: STAT5 phosphorylation by IL-2 in HT-2 cells; assay: STAT5 phosphorylation by IL-2 in HT-2 cells (HTRF); format: cell-based; settings: IL-2 50 U/ml, pSTAT5 HTRF, read-out: Cell Based Assay (μM) HT-2/IL-2/pSTAT5
Method in brief: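 Starved HT-2 cells (120,000/well) were preincubated 30 min at 37 °C with compound (0.2% DMSO), then stimulated 20 min with human IL-2 (50 U/ml). pSTAT5 in lysates measured by HTRF, with unstimulated-cell background subtracted.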

T1 sequence (P23458 whole entry): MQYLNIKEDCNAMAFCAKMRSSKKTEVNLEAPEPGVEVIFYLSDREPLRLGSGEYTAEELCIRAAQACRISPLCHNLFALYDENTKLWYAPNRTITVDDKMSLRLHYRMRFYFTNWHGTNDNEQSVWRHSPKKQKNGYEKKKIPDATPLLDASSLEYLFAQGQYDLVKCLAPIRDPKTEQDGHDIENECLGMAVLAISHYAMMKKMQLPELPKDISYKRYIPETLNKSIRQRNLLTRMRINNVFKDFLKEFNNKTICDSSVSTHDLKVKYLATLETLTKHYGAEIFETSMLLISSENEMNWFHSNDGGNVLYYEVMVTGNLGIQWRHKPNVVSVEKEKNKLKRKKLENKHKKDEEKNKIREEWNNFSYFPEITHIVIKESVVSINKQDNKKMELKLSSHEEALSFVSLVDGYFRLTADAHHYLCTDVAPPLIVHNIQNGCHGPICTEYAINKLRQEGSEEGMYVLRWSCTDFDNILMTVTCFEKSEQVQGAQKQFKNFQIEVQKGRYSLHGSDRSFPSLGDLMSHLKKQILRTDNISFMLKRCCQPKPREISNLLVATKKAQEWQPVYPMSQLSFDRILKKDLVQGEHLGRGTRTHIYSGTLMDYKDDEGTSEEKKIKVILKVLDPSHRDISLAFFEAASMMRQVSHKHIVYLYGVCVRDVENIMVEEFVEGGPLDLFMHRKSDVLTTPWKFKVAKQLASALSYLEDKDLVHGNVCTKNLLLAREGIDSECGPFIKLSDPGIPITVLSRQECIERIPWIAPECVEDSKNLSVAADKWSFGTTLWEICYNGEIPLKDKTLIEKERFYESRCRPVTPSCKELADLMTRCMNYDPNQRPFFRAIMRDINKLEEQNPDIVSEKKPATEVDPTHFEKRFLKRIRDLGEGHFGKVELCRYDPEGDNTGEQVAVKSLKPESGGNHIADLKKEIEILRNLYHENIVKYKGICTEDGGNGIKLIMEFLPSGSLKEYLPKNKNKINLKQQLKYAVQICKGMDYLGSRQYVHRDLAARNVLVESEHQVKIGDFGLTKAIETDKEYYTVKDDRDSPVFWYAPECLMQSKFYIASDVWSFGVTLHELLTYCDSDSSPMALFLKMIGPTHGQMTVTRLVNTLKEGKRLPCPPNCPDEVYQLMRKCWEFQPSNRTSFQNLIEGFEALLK

| SMILES | IC50 (Recombinant JAK1) [µM] | IC50 (Recombinant JAK2) [µM] | IC50 (Recombinant JAK3) [µM] | IC50 (Recombinant TYK2) [µM] | IC50 ([1]; Homo sapiens, TF-1, TF-1 cells) [µM] | IC50 ([2]; Homo sapiens) [µM] | IC50 ([3]; HT2, HT-2 cells) [µM] | IC50 ([1]; TF-1 cells) [µM] | IC50 [2] [µM] | IC50 ([3]; HT-2 cells) [µM] |
| --- | --- | --- | --- | --- | --- | --- | --- | --- | --- | --- |
| CNCCOC(c1ccc(-n2cc(-c3ccnc4[nH]cnc34)cn2)nc1)C(F)(F)F (centres unmarked) [Example 1228, 2-(1-(6-(4-(3H-imidazo[4,5-b]pyridin-7-yl)-1H-pyrazol-1-yl)pyridin-3-yl)-2,2,2-trifluoroethoxy)-N-methylethanamine] | < 0.1 | < 0.1 | < 0.1 | > 0.1 | > 0.5 | > 1 | > 0.5 | – | – | – |
| CS(=O)(=O)NCc1ccc(-n2cc(-c3ccnc4[nH]cnc34)cn2)nc1 [Example 1090, N-((6-(4-(3H-imidazo[4,5-b]pyridin-7-yl)-1H-pyrazol-1-yl)pyridin-3-yl)methyl)methanesulfonamide] | 0.053 | 0.3 | 0.12 | > 1 | > 1 | > 10 | > 1 | – | – | – |
| CNCCC(c1ccc(-n2cc(-c3ccnc4[nH]cnc34)cn2)nc1)C(F)(F)F (centres unmarked) [Example 1200, 3-(6-(4-(3H-imidazo[4,5-b]pyridin-7-yl)-1H-pyrazol-1-yl)pyridin-3-yl)-4,4,4-trifluoro-N-methylbutan-1-amine] | 0.023 | 0.015 | 0.009 | 0.52 | – | – | – | 0.1 | 1 | 0.6 |
| CC(C)S(=O)(=O)CCC(c1ccc(-n2cc(-c3ccnc4[nH]cnc34)cn2)nc1)C(F)(F)F (centres unmarked) [Example 1186, 7-(1-(5-(1,1,1-trifluoro-4-(isopropylsulfonyl)butan-2-yl)pyridin-2-yl)-1H-pyrazol-4-yl)-3H-imidazo[4,5-b]pyridine] | < 0.1 | > 0.1 | > 0.1 | > 1 | > 0.8 | > 1 | > 1 | – | – | – |
| CS(=O)(=O)CCC(O)(c1ccc(-n2cc(-c3ccnc4[nH]cnc34)cn2)nc1)C(F)(F)F (centres unmarked) [Example 1223, 2-(6-(4-(3H-imidazo[4,5-b]pyridin-7-yl)-1H-pyrazol-1-yl)pyridin-3-yl)-1,1,1-trifluoro-4-(methylsulfonyl)butan-2-ol] | 0.002 | 0.015 | 0.004 | 0.39 | > 0.1 | > 1 | > 0.5 | – | – | – |
| O=C(NC1CC1)NC(c1ccc(-n2cc(-c3ccnc4[nH]cnc34)cn2)nc1)C(F)(F)F (centres unmarked) [Example 1178, 1-(1-(6-(4-(3H-imidazo[4,5-b]pyridin-7-yl)-1H-Pyrazol-1-yl)pyridin-3-yl)-2,2,2-trifluoroethyl)-3-cyclopropylurea] | < 0.1 | < 0.1 | < 0.1 | > 1 | > 1 | 1 | > 1 | – | – | – |
| CC(C)NCCC(c1ccc(-n2cc(-c3ccnc4[nH]cnc34)cn2)nc1)C(F)(F)F (centres unmarked) [Example 1203, 3-(6-(4-(3H-imidazo[4,5-b]pyridin-7-yl)-1H-pyrazol-1-yl)pyridin-3-yl)-4,4,4-trifluoro-N-isopropylbutan-1-amine] | < 0.1 | < 0.1 | < 0.1 | > 0.5 | > 0.1 | > 1 | > 0.5 | – | – | – |
| OC(c1ccc(-n2cc(-c3ccnc4[nH]cnc34)cn2)nc1)(C1CC1)C(F)(F)F (centres unmarked) [Example 1126, 1-(6-(4-(3H-imidazo[4,5-b]pyridin-7-yl)-1H-pyrazol-1-yl)pyridin-3-yl)-1-cyclopropyl-2,2,2-trifluoroethanol] | 0.003 | 0.036 | 0.007 | > 1 | 0.34 | > 1 | < 1 | – | – | – |
| O[C@@](c1ccc(-n2cc(-c3ccnc4[nH]cnc34)cn2)nc1)(C1CCN(C2COC2)C1)C(F)(F)F (stereo partly drawn) [Example 1242, (R)-1-(6-(4-(3H-imidazo[4,5-b]pyridin-7-yl)-1H-pyrazol-1-yl)pyridin-3-yl)-2,2,2-trifluoro-1-(1-(oxetan-3-yl)pyrrolidin-3-yl)ethanol] | < 0.1 | < 0.1 | < 0.1 | > 1 | > 1 | > 1 | > 1 | – | – | – |
| N#CCNC(=O)n1cc(-c2ccnc3[nH]c(=O)[nH]c23)cn1 [Example 1027, N-(cyanomethyl)-4-(2,3-dihydro-2-oxo-1H-imidazo[4,5-b]pyridin-7-yl)-1H-pyrazole-1-carboxamide] | 0.028 | 0.044 | 0.146 | 0.096 | > 10 | > 10 | > 10 | – | – | – |
| O=C(NCCC(c1ccc(-n2cc(-c3ccnc4[nH]cnc34)cn2)nc1)C(F)(F)F)NC1CC1 (centres unmarked) [Example 1179, 1-(3-(6-(4-(3H-imidazo[4,5-b]pyridin-7-yl)-1H-Pyrazol-1-yl)pyridin-3-yl)-4,4,4-trifluorobutyl)-3-cyclopropylurea] | < 0.1 | < 0.1 | < 0.1 | > 1 | > 1 | > 1 | > 1 | – | – | – |
| O=C(CCC(c1ccc(-n2cc(-c3ccnc4[nH]cnc34)cn2)nc1)C(F)(F)F)NC1CC1 (centres unmarked) [Example 1150, 4-(6-(4-(3H-imidazo[4,5-b]pyridin-7-yl)-1H-pyrazol-1-yl)pyridin-3-yl)-N-cyclopropyl-5,5,5-trifluoropentanamide] | < 0.1 | < 0.1 | < 0.1 | > 1 | > 0.5 | > 1 | > 1 | – | – | – |
| N#CCCC(O)(c1ccc(-n2cc(-c3ccnc4[nH]cnc34)cn2)nc1)C(F)(F)F (centres unmarked) [Example 1227, 4-(6-(4-(3H-imidazo[4,5-b]pyridin-7-yl)-1H-pyrazol-1-yl)pyridin-3-yl)-5,5,5-trifluoro-4-hydroxypentanenitrile] | < 0.1 | < 0.1 | < 0.1 | > 0.1 | > 0.1 | > 0.75 | > 0.5 | – | – | – |
| O=C(NCCC(c1ccc(-n2cc(-c3ccnc4[nH]cnc34)cn2)nc1)C(F)(F)F)C1CCCC1 (centres unmarked) [Example 1151, N-(3-(6-(4-(3H-imidazo[4,5-b]pyridin-7-yl)-1H-pyrazol-1-yl)pyridin-3-yl)-4,4,4-trifluorobutyl)cyclopentanecarboxamide] | < 0.1 | > 0.1 | > 0.1 | > 1 | > 0.5 | > 1 | > 1 | – | – | – |

From patent US12516056B2, “Compounds for inhibition of janus kinase 1” (MANKIND PHARMA LTD., priority 2019, dated 2026)
